Measurements reported in PubChem BioAssay (NCI).
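Values below derive from 48-hour exposures of cells grown in 96-well plates, with endpoints linearly interpolated between the two concentrations bracketing the appropriate inhibition level. GI50 is the concentration that inhibits growth by half. TGI is the concentration that stops growth completely.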

Columns and labels:
Experiment in all cases: NCI-60 cell line screen, 48 h; in the data active = GI50 below about 0.43 µM; inactive = the rest
786-0 renal = test system: 786-0 renal
A498 renal = test system: A498 renal
A549 NSCLC = test system: A549 NSCLC
ACHN renal = test system: ACHN renal
BT-549 breast = test system: BT-549 breast
CAKI-1 renal = test system: CAKI-1 renal
CCRF-CEM leukemia = test system: CCRF-CEM leukemia
COLO 205 colon = test system: COLO 205 colon
DU-145 prostate = test system: DU-145 prostate
EKVX NSCLC = test system: EKVX NSCLC
HCC-2998 colon = test system: HCC-2998 colon
HCT-116 colon = test system: HCT-116 colon
HCT-15 colon = test system: HCT-15 colon
HL-60(TB) leukemia = test system: HL-60(TB) leukemia
HOP-62 NSCLC = test system: HOP-62 NSCLC
HOP-92 NSCLC = test system: HOP-92 NSCLC
HS 578T breast = test system: HS 578T breast
IGROV1 ovarian = test system: IGROV1 ovarian
K-562 leukemia = test system: K-562 leukemia
KM12 colon = test system: KM12 colon
LOX IMVI melanoma = test system: LOX IMVI melanoma
M14 melanoma = test system: M14 melanoma
MALME-3M melanoma = test system: MALME-3M melanoma
MCF7 breast = test system: MCF7 breast
MDA-MB-231 breast = test system: MDA-MB-231 breast
MDA-MB-435 = test system: MDA-MB-435
MOLT-4 leukemia = test system: MOLT-4 leukemia
NCI-H226 lung = test system: NCI-H226 lung
NCI-H23 lung = test system: NCI-H23 lung
NCI-H460 lung = test system: NCI-H460 lung
NCI-H522 lung = test system: NCI-H522 lung
NCI/ADR-RES ovarian = test system: NCI/ADR-RES ovarian
OVCAR-3 ovarian = test system: OVCAR-3 ovarian
OVCAR-4 ovarian = test system: OVCAR-4 ovarian
OVCAR-5 ovarian = test system: OVCAR-5 ovarian
OVCAR-8 ovarian = test system: OVCAR-8 ovarian
PC-3 prostate = test system: PC-3 prostate
RPMI-8226 leukemia = test system: RPMI-8226 leukemia
RXF 393 renal = test system: RXF 393 renal
SF-268 CNS = test system: SF-268 CNS
SF-295 CNS = test system: SF-295 CNS
SF-539 CNS = test system: SF-539 CNS
SK-MEL-2 melanoma = test system: SK-MEL-2 melanoma
SK-MEL-28 melanoma = test system: SK-MEL-28 melanoma
SK-MEL-5 melanoma = test system: SK-MEL-5 melanoma
SK-OV-3 ovarian = test system: SK-OV-3 ovarian
SN12C renal = test system: SN12C renal
SNB-19 CNS = test system: SNB-19 CNS
SNB-75 CNS = test system: SNB-75 CNS
SW-620 colon = test system: SW-620 colon
T-47D breast = test system: T-47D breast
TK-10 renal = test system: TK-10 renal
U251 CNS = test system: U251 CNS
UACC-257 melanoma = test system: UACC-257 melanoma
UACC-62 melanoma = test system: UACC-62 melanoma
UO-31 renal = test system: UO-31 renal

COc1ccc(C(CC(=O)c2ccccc2)C(C(=O)c2ccccc2)C(c2ccc(OC)cc2)C2C(=O)NC(=O)NC2=O)cc1 (configuration not stated)
69.3 µM: TGI (UACC-257 melanoma)
35.9 µM: TGI (HCT-116 colon)
70.5 µM: TGI (DU-145 prostate)
51.3 µM: TGI (U251 CNS)
75.4 µM: TGI (SF-268 CNS)
48.9 µM: TGI (UACC-62 melanoma)
> 100 µM: TGI (786-0 renal) | TGI (A549 NSCLC) | TGI (ACHN renal) | TGI (CCRF-CEM leukemia) | TGI (EKVX NSCLC) | TGI (HCT-15 colon) | TGI (HL-60(TB) leukemia) | TGI (HS 578T breast) | TGI (IGROV1 ovarian) | TGI (K-562 leukemia) | TGI (KM12 colon) | TGI (LOX IMVI melanoma) | TGI (MALME-3M melanoma) | TGI (MCF7 breast) | TGI (MDA-MB-435) | TGI (MOLT-4 leukemia) | TGI (NCI-H23 lung) | TGI (NCI-H460 lung) | TGI (OVCAR-4 ovarian) | TGI (PC-3 prostate) | TGI (RPMI-8226 leukemia) | TGI (RXF 393 renal) | TGI (SF-295 CNS) | TGI (SK-MEL-2 melanoma) | TGI (SK-MEL-28 melanoma) | TGI (SK-OV-3 ovarian) | TGI (SN12C renal) | TGI (SNB-19 CNS) | TGI (SNB-75 CNS) | TGI (SW-620 colon) | TGI (T-47D breast) | TGI (TK-10 renal)
68.7 µM: TGI (OVCAR-8 ovarian)
66.6 µM: TGI (HOP-62 NSCLC)
31.8 µM: TGI (SK-MEL-5 melanoma)
44.4 µM: TGI (OVCAR-3 ovarian)
92.8 µM: TGI (BT-549 breast)
16.2 µM: TGI (MDA-MB-231 breast)
28.5 µM: TGI (HCC-2998 colon)
63.7 µM: TGI (NCI/ADR-RES ovarian)
43.5 µM: TGI (A498 renal)
56.8 µM: TGI (OVCAR-5 ovarian)
60.8 µM: TGI (M14 melanoma)
47.7 µM: TGI (UO-31 renal)
50.2 µM: TGI (HOP-92 NSCLC)
62 µM: TGI (NCI-H226 lung)
inactive: GI50 (786-0 renal) 27.8 µM | GI50 (A498 renal) 11 µM | GI50 (A549 NSCLC) 15.9 µM | GI50 (ACHN renal) 17.9 µM | GI50 (BT-549 breast) 21.9 µM | GI50 (CAKI-1 renal) 2.85 µM | GI50 (CCRF-CEM leukemia) 12.9 µM | GI50 (COLO 205 colon) 3.43 µM | GI50 (DU-145 prostate) 19.2 µM | GI50 (EKVX NSCLC) 12.5 µM | GI50 (HCC-2998 colon) 6.83 µM | GI50 (HCT-116 colon) 14.2 µM | GI50 (HCT-15 colon) 21.9 µM | GI50 (HL-60(TB) leukemia) 41.2 µM | GI50 (HOP-62 NSCLC) 26.3 µM | GI50 (HOP-92 NSCLC) 2.3 µM | GI50 (HS 578T breast) 25.9 µM | GI50 (IGROV1 ovarian) 13.2 µM | GI50 (K-562 leukemia) 39.1 µM | GI50 (KM12 colon) 19.1 µM | GI50 (LOX IMVI melanoma) 9.38 µM | GI50 (M14 melanoma) 19.8 µM | GI50 (MALME-3M melanoma) 33.1 µM | GI50 (MCF7 breast) 18.7 µM | GI50 (MDA-MB-231 breast) 2.24 µM | GI50 (MDA-MB-435) 19.6 µM | GI50 (MOLT-4 leukemia) 60.7 µM | GI50 (NCI-H226 lung) 20 µM | GI50 (NCI-H23 lung) 37.3 µM | GI50 (NCI-H460 lung) 7.14 µM | GI50 (NCI-H522 lung) 16.2 µM | GI50 (NCI/ADR-RES ovarian) 22.2 µM | GI50 (OVCAR-3 ovarian) 11.9 µM | GI50 (OVCAR-4 ovarian) 26 µM | GI50 (OVCAR-5 ovarian) 17.4 µM | GI50 (OVCAR-8 ovarian) 24.7 µM | GI50 (PC-3 prostate) 7.31 µM | GI50 (RPMI-8226 leukemia) 13.8 µM | GI50 (RXF 393 renal) 22.6 µM | GI50 (SF-268 CNS) 12.8 µM | GI50 (SF-295 CNS) 23.2 µM | GI50 (SF-539 CNS) 17.8 µM | GI50 (SK-MEL-2 melanoma) 38.5 µM | GI50 (SK-MEL-28 melanoma) 23.7 µM | GI50 (SK-MEL-5 melanoma) 12.5 µM | GI50 (SK-OV-3 ovarian) > 100 µM | GI50 (SN12C renal) 24.2 µM | GI50 (SNB-19 CNS) 13.7 µM | GI50 (SNB-75 CNS) 32.6 µM | GI50 (SW-620 colon) 26.3 µM | GI50 (T-47D breast) 21.6 µM | GI50 (TK-10 renal) 43.2 µM | GI50 (U251 CNS) 10.7 µM | GI50 (UACC-257 melanoma) 14.1 µM | GI50 (UACC-62 melanoma) 16.2 µM | GI50 (UO-31 renal) 13.5 µM
63.2 µM: TGI (SF-539 CNS)
19.1 µM: TGI (COLO 205 colon)
20.3 µM: TGI (CAKI-1 renal)
72.6 µM: TGI (NCI-H522 lung)
